Experimental data published in EPA's ToxRefDB 2.

Tests used:
rat [1] = conditions: Sub-acute repeat dose toxicity, Oral, Gavage/Intubation, dose end: 4 day, group: systemic
rat [2] = conditions: Sub-acute repeat dose toxicity, Oral, Gavage/Intubation, dose end: 4 day, group: systemic; remark: listed apart in the source
rat [3] = conditions: Sub-acute repeat dose toxicity, Oral, Gavage/Intubation, dose end: 4 day, group: systemic; remark: listed apart in the source
rat [4] = conditions: Sub-acute repeat dose toxicity, Oral, Gavage/Intubation, dose end: 4 day, group: systemic; remark: listed apart in the source
rat [5] = conditions: Combined chronic toxicity/carcinogenicity, sprague dawley, Oral, Feed, dose end: 24 month
rat [6] = conditions: Multigenerational reproductive toxicity study, sprague dawley, Oral, Feed, dose end: 2 generation
mouse [7] = conditions: Carcinogenicity, cd1, Oral, Feed, dose end: 78 week, group: systemic
dog [8] = conditions: Chronic toxicity; beagle; Oral; Gavage/Intubation; dose end: 12 month; group: systemic; systemic / clinical chemistry / alkaline phosphatase (alp/alk) / alkaline phosphatase (alp/alk) + systemic / clinical chemistry / urea …
rat [9] = conditions: Combined chronic toxicity/carcinogenicity, sprague dawley, Oral, Feed, dose end: 24 month, group: systemic
rat [10] = conditions: Multigenerational reproductive toxicity study, sprague dawley, Oral, Feed, dose end: 3 generation
mouse [11] = conditions: Carcinogenicity, b6c3f1, Oral, Feed, dose end: 2 year, group: systemic
rat [12] = conditions: Subchronic oral toxicity in rodents, fischer, Feed, dose end: 14 week, group: systemic
mouse [13] = conditions: Subchronic oral toxicity in rodents, b6c3f1, Feed, dose end: 14 week, group: systemic, systemic / hematology / mean corpuscular (cell) volume (mcv) / mean corpuscular (cell) volume (mcv) + systemic / hematology / mean …
rat [14] = conditions: Carcinogenicity, fischer, Oral, Feed, dose end: 2 year, group: systemic
rat [15] = conditions: Multigenerational reproductive toxicity study, WIST Han Ibm: WIST ISPF, Oral, Feed, dose end: 2 generation
dog [16] = conditions: Chronic toxicity, beagle, Oral, Feed, dose end: 52 week, group: systemic
rat [17] = conditions: Prenatal developmental toxicity study, wistar, Oral, Gavage/Intubation, dose end: 16 GD
rabbit = conditions: Prenatal developmental toxicity study, himalayan, Oral, Gavage/Intubation, dose end: 18 GD, group: maternal
[18] = systemic / in life observation / clinical signs / abnormal respiratory sounds + systemic / in life observation / clinical signs / fur (…
[19] = systemic / in life observation / body weight / body weight + systemic / in life observation / clinical signs / abnormal respiratory sounds…
[20] = systemic / organ weight / liver / absolute
[21] = systemic / organ weight / liver / absolute + systemic / in life observation / clinical signs / salivation + systemic / pathology microscopic…
[22] = systemic / in life observation / body weight / body weight + systemic / organ weight / liver / absolute + systemic / in life observation / …
[23] = group: cholinesterase, cholinesterase / cholinesterase / cholinesterase / brain cholinesterase (che) + cholinesterase / cholinesterase / cholinesterase / …
[24] = group: systemic, systemic / pathology microscopic / nerve / cholesterol cleft(s) + systemic / pathology microscopic / nerve / mineralization + systemic / …
[25] = group: cholinesterase, cholinesterase / cholinesterase / cholinesterase / erythrocyte cholinesterase (che)
[26] = group: offspring, systemic / in life observation / body weight / offspring (pup) weight
[27] = group: offspring, systemic / in life observation / body weight / offspring (pup) weight + developmental / offspring survival late / lactation index / …
[28] = group: parental, systemic / in life observation / body weight / body weight + systemic / in life observation / body weight / body weight gain + systemic / in…
[29] = group: reproductive, reproductive / offspring survival early / litter size / litter size
[30] = systemic / in life observation / body weight / body weight gain + systemic / pathology microscopic / ovary / cyst + systemic / in life …
[31] = group: offspring, systemic / in life observation / body weight / offspring (pup) weight + developmental / offspring survival late / viability index / …
[32] = group: parental, systemic / in life observation / body weight / body weight + systemic / in life observation / body weight / body weight gain
[33] = group: reproductive, reproductive / offspring survival early / live fetuses / live fetuses
[34] = systemic / in life observation / body weight / body weight
[35] = systemic / in life observation / body weight / body weight + systemic / pathology microscopic / nose / pigmentation
[36] = systemic / clinical chemistry / alanine aminotransferase (alt/sgpt) / alanine aminotransferase (alt/sgpt) + systemic / clinical chemistry / …
[37] = systemic / clinical chemistry / bile acids / bile acids + systemic / in life observation / body weight / body weight + systemic / in life …
[38] = systemic / in life observation / body weight / body weight + systemic / in life observation / food consumption / food consumption
[39] = group: offspring, systemic / in life observation / body weight / offspring (pup) weight + systemic / in life observation / body weight / offspring (pup) …
[40] = group: parental, systemic / in life observation / body weight / body weight + systemic / in life observation / body weight / body weight gain + systemic / …
[41] = systemic / clinical chemistry / alkaline phosphatase (alp/alk) / alkaline phosphatase (alp/alk) + systemic / organ weight / liver / absolute…
[42] = group: developmental, systemic / in life observation / body weight / fetal weight + systemic / in life observation / body weight / offspring (pup) weight gain
[43] = group: developmental, systemic / in life observation / body weight / fetal weight + systemic / in life observation / body weight / offspring (pup) weight gain + …
[44] = group: maternal, systemic / in life observation / body weight / body weight gain + systemic / in life observation / food consumption / food efficiency
[45] = group: maternal, systemic / in life observation / body weight / body weight gain + systemic / in life observation / food consumption / food efficiency + …
[46] = reproductive / reproductive performance / aborted / aborted + systemic / in life observation / body weight / body weight gain + systemic / …

## CNCc1ccc(S(C)(=O)=O)cc1Oc1ccc2c(c1)CCCC2
Rat [1]; [18]
  LOAEL: > 500 mg/kg/day
  NEL: 30 mg/kg/day
  NOAEL: ≥ 500 mg/kg/day
Rat [1]; systemic / in life observation / clinical signs / salivation
  LEL: 100 mg/kg/day
Rat [2]; [19]
  LOAEL: > 500 mg/kg/day
  NOAEL: ≥ 500 mg/kg/day
Rat [2]; [20]
  LEL: 30 mg/kg/day
  NEL: < 30 mg/kg/day
Rat [3]; [20]
  LEL: 30 mg/kg/day
  NEL: < 30 mg/kg/day
Rat [3]; [21]
  LOAEL: > 100 mg/kg/day
  NOAEL: ≥ 100 mg/kg/day
Rat [4]; [22]
  LOAEL: > 500 mg/kg/day
  NOAEL: ≥ 500 mg/kg/day
Rat [4]; [20]
  LEL: 30 mg/kg/day
  NEL: < 30 mg/kg/day

## CCSC(=O)N(CC)C1CCCCC1 [Cycloate]
Rat [5]; [23]
  LEL: 8 mg/kg/day
  LOAEL: 8 mg/kg/day
  NEL: < 8 mg/kg/day
  NOAEL: < 8 mg/kg/day
Rat [5]; [24]
  LEL: 8 mg/kg/day
  LOAEL: 8 mg/kg/day
  NEL: < 8 mg/kg/day
  NOAEL: < 8 mg/kg/day
Rat [6]; [25]
  LEL: 50 mg/kg/day
  LOAEL: > 50 mg/kg/day
  NEL: 20 mg/kg/day
  NOAEL: ≥ 50 mg/kg/day
Rat [6]; [26]
  LEL: 20 mg/kg/day
  LOAEL: 20 mg/kg/day
Rat [6]; [27]
  NEL: 2.5 mg/kg/day
  NOAEL: 2.5 mg/kg/day
Rat [6]; [28]
  LEL: 20 mg/kg/day
  LOAEL: 20 mg/kg/day
  NEL: 2.5 mg/kg/day
  NOAEL: 2.5 mg/kg/day
Rat [6]; [29]
  LEL: 50 mg/kg/day
  LOAEL: 50 mg/kg/day
  NEL: 20 mg/kg/day
  NOAEL: 20 mg/kg/day
Mouse [7]; systemic / in life observation / body weight / body weight gain + systemic / pathology microscopic / ovary / cyst
  LOAEL: 167 mg/kg/day
Mouse [7]; [30]
  LEL: 167 mg/kg/day
  NEL: 49 mg/kg/day
  NOAEL: 49 mg/kg/day
Dog [8]
  LEL: 50 mg/kg/day
  LOAEL: 50 mg/kg/day
  NEL: 0.5 mg/kg/day
  NOAEL: 0.5 mg/kg/day
Rat [9]; systemic / organ weight / heart / absolute
  LEL: 2.4 mg/kg/day
Rat [9]; systemic / organ weight / heart / absolute + systemic / pathology microscopic / skeletal muscle / atrophy + systemic / pathology microscopic…
  NEL: 0.4 mg/kg/day
Rat [9]; systemic / pathology microscopic / spinal cord / atrophy + systemic / pathology microscopic / spinal cord / degeneration
  LOAEL: 3.1 mg/kg/day
Rat [9]; systemic / pathology microscopic / spinal cord / atrophy + systemic / pathology microscopic / spinal cord / degeneration + systemic / in …
  NOAEL: 0.5 mg/kg/day
Rat [10]; [26]
  LEL: 24 mg/kg/day
  LOAEL: 24 mg/kg/day
Rat [10]; [31]
  NEL: 8 mg/kg/day
  NOAEL: 8 mg/kg/day
Rat [10]; [32]
  LEL: 24 mg/kg/day
  LOAEL: 24 mg/kg/day
  NEL: 8 mg/kg/day
  NOAEL: 8 mg/kg/day
Rat [10]; [33]
  LEL: 72 mg/kg/day
  LOAEL: > 72 mg/kg/day
  NEL: 24 mg/kg/day
  NOAEL: ≥ 72 mg/kg/day

## O=C/C=C/c1ccccc1 [(2E)-3-Phenylprop-2-enal]
Mouse [11]; [34]
  LOAEL: 270 mg/kg/day
Mouse [11]; [35]
  LEL: 270 mg/kg/day
  NEL: 125 mg/kg/day
  NOAEL: 125 mg/kg/day
Rat [12]; [36]
  LOAEL: > 3100 mg/kg/day
  NOAEL: ≥ 3100 mg/kg/day
Rat [12]; [37]
  LEL: 275 mg/kg/day
  NEL: < 275 mg/kg/day
Mouse [13]
  LEL: 1320 mg/kg/day
  LOAEL: > 5200 mg/kg/day
  NEL: 650 mg/kg/day
  NOAEL: ≥ 5200 mg/kg/day
Rat [14]; [34]
  LOAEL: 200 mg/kg/day
Rat [14]; [38]
  LEL: 100 mg/kg/day
  NEL: 50 mg/kg/day
  NOAEL: 100 mg/kg/day

## CCOC(=O)C1=NN(c2ccc(Cl)cc2Cl)C(C)(C(=O)OCC)C1 (centres undefined) [Mefenpyr-diethyl]
Rat [15]; [39]
  LEL: 250 mg/kg/day
  LOAEL: 250 mg/kg/day
  NEL: 50 mg/kg/day
  NOAEL: 50 mg/kg/day
Rat [15]; [40]
  LEL: 250 mg/kg/day
  LOAEL: 250 mg/kg/day
  NEL: 50 mg/kg/day
  NOAEL: 50 mg/kg/day
Dog [16]; [41]
  LOAEL: 260 mg/kg/day
  NOAEL: 51.4 mg/kg/day
Dog [16]; systemic / organ weight / liver / relative to body weight
  LEL: 57.6 mg/kg/day
Dog [16]; systemic / organ weight / liver / relative to body weight + systemic / clinical chemistry / alkaline phosphatase (alp/alk) / alkaline …
  NEL: 11.1 mg/kg/day
Rat [17]; [42]
  LOAEL: 1000 mg/kg/day
  NOAEL: < 1000 mg/kg/day
Rat [17]; [43]
  LEL: 1000 mg/kg/day
  NEL: < 1000 mg/kg/day
Rat [17]; [44]
  LOAEL: 1000 mg/kg/day
  NOAEL: < 1000 mg/kg/day
Rat [17]; [45]
  LEL: 1000 mg/kg/day
  NEL: < 1000 mg/kg/day
rabbit; reproductive / reproductive performance / aborted / aborted + reproductive / offspring survival early / live fetuses / live fetuses
  LOAEL: 250 mg/kg/day
rabbit; reproductive / reproductive performance / aborted / aborted + reproductive / offspring survival early / live fetuses / live fetuses + …
  LEL: 250 mg/kg/day
rabbit; [46]
  NEL: 100 mg/kg/day
  NOAEL: 100 mg/kg/day
